Experimental data taken from US20090163521A1, “Novel Pyrazolopyrimidinone Derivatives” (ORCHID RESEARCH LABORATORIES LIMITED, priority 2005, published 2009).

What was measured:
[1] = biological target: T1, COX-2 (Homo sapiens, UniProt P35354); assay: Human whole blood assay (LPS-induced PGE2, COX-2 inhibition); assay type: cell-based; conditions: LPS stimulated
T1 construct: Fresh blood was collected in tubes containing sodium heparin by vein puncture from healthy male volunteers; endogenous in cells; host or cells: human whole blood from healthy male volunteers, aspirin-pretreated and LPS-stimulated
T1 sequence (P35354 18-604): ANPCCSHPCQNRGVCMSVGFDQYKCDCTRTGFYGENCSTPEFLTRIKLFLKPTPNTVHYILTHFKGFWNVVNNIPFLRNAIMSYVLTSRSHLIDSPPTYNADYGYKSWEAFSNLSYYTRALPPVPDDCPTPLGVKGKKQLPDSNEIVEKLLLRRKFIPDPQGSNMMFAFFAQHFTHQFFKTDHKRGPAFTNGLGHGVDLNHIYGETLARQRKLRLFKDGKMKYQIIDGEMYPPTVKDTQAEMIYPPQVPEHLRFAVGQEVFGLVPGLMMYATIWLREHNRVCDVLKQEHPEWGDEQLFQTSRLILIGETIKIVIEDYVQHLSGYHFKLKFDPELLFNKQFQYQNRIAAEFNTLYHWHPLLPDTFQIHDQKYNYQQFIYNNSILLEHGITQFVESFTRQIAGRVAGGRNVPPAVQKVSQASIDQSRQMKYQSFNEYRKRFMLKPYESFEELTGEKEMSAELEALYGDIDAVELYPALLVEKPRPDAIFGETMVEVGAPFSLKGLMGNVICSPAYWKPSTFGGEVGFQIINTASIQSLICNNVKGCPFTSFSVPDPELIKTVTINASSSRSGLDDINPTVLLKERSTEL
Procedure: Human whole blood provides a protein and cell rich milieu appropriate for the study of biochemical efficacy of anti-inflammatory compounds such as selective COX-2 inhibitors. […] This is correlating with the observation that COX-2 inhibitors have no effect on prostaglandin E2 (PGE2) production in normal blood. These inhibitors were active only after incubation of human blood with lipopolysaccharide (LPS), which induces COX-2 production in the blood.
Fresh blood was collected in tubes containing sodium heparin by vein puncture from healthy male volunteers. The subjects should have no apparent inflammatory conditions and not taken NSAIDs for at least 7 days prior to blood collection. Blood was preincubated with aspirin in vitro (12 μg/ml, at time zero) to inactivate COX-1 for 6 hours. Then test compounds (at various concentrations) or vehicle were added to blood. After that blood was stimulated with LPS B:4 (10 μg/ml) and incubated for another 18 h at 37° C. water bath. After which the blood was centrifuged, plasma was separated and stored at −80° C. (J. Pharmacol. Exp. Ther, 271, 1705, 1994; Proc. Natl. Acad. Sci. USA, 96, 7563, 1999). The plasma was assayed for PGE2 using Cayman ELISA kit as per the procedure outlined by the manufacturer (Cayman Chemicals, Ann Arbor, USA).

[2] = tested on: MCF-7; assay: DTP human tumor cell line screen, MCF-7; assay type: cell-based; conditions: 100 μM; 48 hours; percent growth of control
Procedure: (§1) The current assay utilizes a 384 well plate format and fluorescent staining technologies resulting in greater screening capacity for testing of synthetic samples.
(§2) The cell lines of the cancer-screening panel are grown in RPMI 1640 medium containing 5% fetal bovine serum and 2 mM L-glutamine. For a typical screening experiment, cells are inoculated into 96 well microtiter plates in 100 μL. After cell inoculation, the micro-titer plates are incubated at 37° C., 5% CO2, 95% air and 100% relative humidity for 24 h prior to addition of experimental drugs. The cells are plated a densities of 5000 cells/well (MCF7), 1000 cells/well (NCI-H460), and 7500 cells/well (SF-268) to allow for varying doubling time of the cell lines. Each plate contains all three-cell lines, a series of dilutions of standard agents, total kill wells and appropriate controls. Plates are incubated under standard conditions for 24 hours prior to addition of experimental compounds or extracts.
(§3) Experimental compounds are solubilized in dimethyl sulfoxide (DMSO) at 400-times the desired maximum test concentration (maximum final DMSO concentration of 0.25%) and stored frozen. Compounds are then diluted with complete media with 0.1% gentamicin sulfate (5 μl of test sample in 100% DMSO is added to 565 μl of complete medium). 20 μl of this solution is then dispensed into test wells containing 50 μl of cell suspension to yield a test concentration of 1.00E-04M.
(§4) After compound addition, plates are incubated at standard conditions for 48 hours, 10 μl/well Alamar Blue is added and the plates are incubated for an additional 4 hours. Fluorescence is measured using an excitation wavelength of 530 nm and an emission wavelength of 590 nm.
(§5) Percent growth is calculated on a plate-by-plate basis for test wells relative to control wells. Percent Growth is expressed as the ratio of fluorescence of the test well to the average fluorescence of the control wells ×100.

[3] = tested on: NCI-H460; assay: DTP human tumor cell line screen, NCI-H460; assay type: cell-based; conditions: 100 μM; 48 hours; percent growth of control
Procedure: as §1, §2, §3, §4, §5

[4] = tested on: SF-268; assay: DTP human tumor cell line screen, SF-268; assay type: cell-based; conditions: 100 μM; 48 hours; percent growth of control
Procedure: as §1, §2, §3, §4, §5

[5] = tested on: TNF-α; assay: In vitro measurement of TNF-α in LPS-stimulated human PBMC; assay type: cell-based; conditions: LPS 1 μg/ml, 18 h
Procedure: This assay determines the effect of test compounds on the production of TNF α in human Peripheral Blood Mononuclear Cells (PBMC). Compounds were tested for their ability to inhibit the activity of TNF α in human PBMC. PBMC were isolated from blood (from healthy volunteers) using BD Vacutainer CPT™ (Cell preparation tube, BD Bio Science) and suspended in RPMI medium (Physiol. Res. 52: 593-598, 2003). The test compounds were pre-incubated with PBMC (0.5 million/incubation well) for 15 minutes at 37° C. and then stimulated with Lipopolysaccharide (Escherichia coli: B4; 1 μg/ml) for 18 h at 37° C. in 5% CO2. The levels of TNFα in cell culture medium were estimated using enzyme linked Immunosorbent assay performed in a 96 well format as per the procedure of the manufacturer (Cayman Chemical, Ann Arbor, USA).

[6] = tested on: TNF-α; assay: LPS induced sepsis for measurement of TNF-α inhibition in mice; assay type: in vivo; conditions: at 50 mg/kg, oral, serum 90 min after LPS
Procedure: The LPS induced sepsis model in mice was performed as described by Les sekut et al (J Lab Clin Med 1994; 124:813-20). Female Swiss albino mice were selected and the body weights were equivalent within each group. The mice were fasted for 20 hours with free access to water. The mice were dosed orally with the test compound suspended in vehicle containing 0.5% Tween 80 in 0.25% Carboxy-methylcellulose sodium salt. The control mice were administered the vehicle alone. After 30 min of oral dosing, mice were injected with 500 μg of Lipopolysaccharide (Escherichia coli, LPS: B4 from Sigma) in phosphate buffer saline solution into the intraperitoneal cavity of the mice. After 90 min of LPS administration mice were bled via retro-orbital sinus puncture. Blood samples were stored overnight at 4° C. Serum samples were collected by centrifuging the samples at 400 rpm for 15 min at 4° C. Immediately the serum samples were analysed for TNFα levels using commercially available mouse TNF-α ELISA kit (Amersham Biosciences) and assay was performed by the manufacturer instruction.

`CSc1ccc(-n2c(-c3ccc(F)cc3)nc3[nH]nc(N)c3c2=O)cc1` [Example 5, 3-Amino-5-[(4-methylthio)phenyl]-6-(4-fluorophenyl)-1,5-dihydro-4H-pyrazolo[3,4-d]pyrimidin-4-one] gave an inhibition at 10 µM [1] of 31.8%.
`CSc1ccc(-c2nc3[nH]nc(N)c3c(=O)n2-c2ccc(C(C)(C)C)cc2)cc1` [Example 6, 3-Amino-5-(4-tert-butylphenyl)-6-[4-(methylthio)phenyl]-1,5-dihydro-4H-pyrazolo[3,4-d]pyrimidin-4-one] was tested, and the “% T/C Breast (MCF-7)” value [2] was 0%, the “% T/C Lung (NCI-H460)” value [3] was 0% and the “% T/C CNS (SF-268)” value [4] was 1%. For the same compound, the inhibition at 0.25 µM [1] was 18.6% and the inhibition at 10 µM [1] was 37.7%.
`CSc1ccc(-n2c(-c3ccc(Cl)cc3)nc3[nH]nc(N)c3c2=O)cc1` [Example 8, 3-Amino-5-[(4-methylthio)phenyl]-6-(4-chlorophenyl)-1,5-dihydro-4H-pyrazolo[3,4-d]pyrimidin-4-one] was tested, and the “% T/C Breast (MCF-7)” value [2] was 26%, the “% T/C Lung (NCI-H460)” value [3] was 2% and the “% T/C CNS (SF-268)” value [4] was 36%. It also gave an inhibition at 0.25 µM [1] of 28.3%.
For `CSc1ccc(-c2nc3[nH]nc(N)c3c(=O)n2-c2ccc(Cl)cc2)cc1` [Example 9, 3-Amino-5-(4-chlorophenyl)-6-[(4-methylthio)phenyl]-1,5-dihydro-4H-pyrazolo[3,4-d]pyrimidin-4-one], the “% T/C Breast (MCF-7)” value [2] was 9%, the “% T/C Lung (NCI-H460)” value [3] was 4% and the “% T/C CNS (SF-268)” value [4] was 31%. The inhibition at 10 µM [1] was 27.1%.
`CCc1ccc(-n2c(-c3ccc(SC)cc3)nc3[nH]nc(N)c3c2=O)cc1` [Example 10, 3-Amino-5-(4-ethylphenyl)-6-[(4-methylthio)phenyl]-1,5-dihydro-4H-pyrazolo[3,4-d]pyrimidin-4-one] was tested, and the “% T/C Breast (MCF-7)” value [2] was 22%, the “% T/C Lung (NCI-H460)” value [3] was 4% and the “% T/C CNS (SF-268)” value [4] was 10%.
`CSc1ccc(-n2c(-c3ccccc3)nc3[nH]nc(N)c3c2=O)cc1` [Example 11, 3-Amino-5-[(4-methylthio)phenyl]-6-phenyl-1,5-dihydro-4H-pyrazolo[3,4-d]pyrimidin-4-one] was tested, and the inhibition at 10 µM [1] was 29.2%.
Compound `Nc1n[nH]c2nc(-c3ccccc3)n(-c3ccc(F)cc3)c(=O)c12` [Example 12, 3-Amino-5-(4-fluorophenyl)-6-phenyl-1,5-dihydro-4H-pyrazolo[3,4-d]pyrimidin-4-one] has an inhibition at 0.25 µM [1] of 26.2%.
`CSc1ccc(-n2c(-c3ccc(C)cc3)nc3[nH]nc(N)c3c2=O)cc1` [Example 13, 3-Amino-5-[(4-methylthio)phenyl]-6-(4-methylphenyl)-1,5-dihydro-4H-pyrazolo[3,4-d]pyrimidin-4-one] showed an inhibition at 0.25 µM [1] of 26.8%.
In the case of `Cc1ccc(-n2c(-c3ccc(S(C)(=O)=O)cc3)nc3[nH]nc(N)c3c2=O)cc1` [Example 14, 3-Amino-5-(4-methylphenyl)-6-[(4-methylsulfonyl)phenyl]-1,5-dihydro-4H-pyrazolo[3,4-d]pyrimidin-4-one], the inhibition at 0.25 µM [1] is reported as 19.3% and the inhibition at 10 µM [1] is reported as 23%.
Work on `CCOc1ccc(-n2c(-c3ccc(SC)cc3)nc3[nH]nc(N)c3c2=O)cc1` [Example 15, 3-Amino-5-(4-ethoxyphenyl)-6-[(4-methylthio)phenyl]-1,5-dihydro-4H-pyrazolo[3,4-d]pyrimidin-4-one] yielded an inhibition at 0.25 µM [1] of 20.2%.
Work on `Cc1ccc(-n2c(-c3ccccc3)nc3[nH]nc(N)c3c2=O)cc1` [Example 16, 3-Amino-5-(4-methylphenyl)-6-phenyl-1,5-dihydro-4H-pyrazolo[3,4-d]pyrimidin-4-one] yielded an inhibition at 0.25 µM [1] of 31.4%.
In the case of `CSc1ccc(-n2c(-c3ccc(C(F)(F)F)cc3)nc3[nH]nc(N)c3c2=O)cc1` [Example 17, 3-Amino-5-[(4-methylthio)phenyl]-6-(4-trifluoromethylphenyl)-1,5-dihydro-4H-pyrazolo[3,4-d]pyrimidin-4-one], the “% T/C Breast (MCF-7)” value [2] is reported as 0%, the “% T/C Lung (NCI-H460)” value [3] is reported as 25% and the “% T/C CNS (SF-268)” value [4] is reported as 0%. For the same compound, the inhibition at 0.25 µM [1] was 19.4% and the inhibition at 10 µM [1] was 36.5%.
`CCOc1ccc(-n2c(-c3ccc(SC)cc3)nc3c(c(N)nn3C)c2=O)cc1` [Example 21, 3-Amino-5-(4-ethoxyphenyl)-1-methyl-6-[4-(methylthio)phenyl]-1,5-dihydro-4H-pyrazolo[3,4-d]pyrimidin-4-one] was tested, and the inhibition at 10 µM [5] was 75.1% and the “TNF-α Inhibition (%)” value [6] was 75.15 (at 50 mg/kg) %.
For `CSc1ccc(-c2nc3c(c(N)nn3C)c(=O)n2-c2ccc(F)cc2)cc1` [Example 25, 3-Amino-5-(4-fluorophenyl)-1-methyl-6-[4-(methylthio)phenyl]-1,5-dihydro-4H-pyrazolo[3,4-d]pyrimidin-4-one], the inhibition at 10 µM [5] was 52.9%.
`CSc1ccc(-c2nc3c(c(N)nn3C)c(=O)n2-c2ccc(Br)cc2)cc1` [Example 30, 3-Amino-5-(4-bromophenyl)-1-methyl-6-[4-(methylthio)phenyl]-1,5-dihydro-4H-pyrazolo[3,4-d]pyrimidin-4-one] gave an inhibition at 10 µM [5] of 86.6%.
Compound `COc1ccc(-n2c(-c3ccc(N(C)C)cc3)nc3c(c(N)nn3C)c2=O)cc1` [Example 31, 3-Amino-6-[4-(dimethylamino)phenyl]-5-(4-methoxyphenyl)-1-methyl-1,5-dihydro-4H-pyrazolo[3,4-d]pyrimidin-4-one] has an inhibition at 10 µM [5] of 87.9%.
Compound `CSc1ccc(-c2nc3c(c(N)nn3C(C)=O)c(=O)n2-c2ccc(C)c(C)c2)cc1` [Example 37, 1-Acetyl-3-amino-5-(3,4-dimethylphenyl)-6-[(4-methylthio)phenyl]-1,5-dihydro-4H-pyrazolo[3,4-d]pyrimidin-4-one] has an inhibition at 10 µM [5] of 29.9%.
